# Columns and labels:
# Caspase-1 = target: T1, Caspase-1 (Mus musculus, UniProt P29452); assay: Inhibitory activity against Caspase-1 using Ac-TyrValAlaAsp-amc as substrate
# T1 sequence (P29452 whole entry): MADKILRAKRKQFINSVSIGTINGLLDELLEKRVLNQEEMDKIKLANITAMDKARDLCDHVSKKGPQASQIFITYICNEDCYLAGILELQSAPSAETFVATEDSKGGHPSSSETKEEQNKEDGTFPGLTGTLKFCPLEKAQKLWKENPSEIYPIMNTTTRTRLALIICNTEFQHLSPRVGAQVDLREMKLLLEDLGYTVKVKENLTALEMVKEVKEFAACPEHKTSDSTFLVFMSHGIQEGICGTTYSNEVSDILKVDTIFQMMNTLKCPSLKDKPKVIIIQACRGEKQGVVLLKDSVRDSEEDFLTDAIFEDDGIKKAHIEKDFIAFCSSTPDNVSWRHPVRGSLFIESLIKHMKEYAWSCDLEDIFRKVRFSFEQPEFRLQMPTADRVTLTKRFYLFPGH
# Caspase-3 = target: T2, Caspase-3 (Homo sapiens, UniProt P42574); assay: Inhibitory activity against human Caspase-3 using Ac-AspGluValAsp as substrate
# T2 sequence (P42574 whole entry): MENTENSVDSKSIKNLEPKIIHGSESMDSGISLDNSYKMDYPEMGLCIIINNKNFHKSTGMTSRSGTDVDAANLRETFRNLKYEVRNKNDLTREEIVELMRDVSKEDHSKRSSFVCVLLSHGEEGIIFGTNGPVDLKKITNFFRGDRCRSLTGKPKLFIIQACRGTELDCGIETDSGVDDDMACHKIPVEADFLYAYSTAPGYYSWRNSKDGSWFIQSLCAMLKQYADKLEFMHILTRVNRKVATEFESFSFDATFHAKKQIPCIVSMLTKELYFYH
SMILES,IC50 (Caspase-1) [nM],IC50 (Caspase-3) [nM]
O=C(CN1CCCC[C@H](NC(=O)OCc2ccccc2)C1=O)N[C@H]1CC(=O)OC1O (stereo partly drawn),1680,
CC(=O)N[C@@H](Cc1ccc(O)cc1)C(=O)N[C@H](C(=O)N[C@@H](C)C(=O)N[C@H]1CC(=O)OC1O)C(C)C (stereo partly drawn),4.6,
O=C1C[C@H](NC(=O)[C@@H]2CCC[C@@H]3CCC[C@H](NC(=O)OCc4ccccc4)C(=O)N32)C(O)O1 (stereo partly drawn),36,> 10000
CC(=O)N[C@@H](CC(=O)O)C(=O)N[C@H](C(=O)N[C@@H](C)C(=O)N[C@H]1CC(=O)OC1O)C(C)C (stereo partly drawn),523,
CC(=O)N[C@@H](CC(=O)O)C(=O)N[C@@H](CCC(=O)O)C(=O)N[C@H](C(=O)N[C@H]1CC(=O)OC1O)C(C)C (stereo partly drawn),71,1.2
O=C(CN1CC[C@H](NC(=O)OCc2ccccc2)C1=O)N[C@H]1CC(=O)OC1O (stereo partly drawn),> 10000,> 10000
CC(=O)N[C@@H](CC(=O)O)C(=O)N[C@H]1CCC[C@H]2SC[C@@H](C(=O)N[C@H]3CC(=O)OC3O)N2C1=O (stereo partly drawn),10400,18

# Further lines, results first:
IC50 (Caspase-1) [nM],IC50 (Caspase-3) [nM],SMILES
186,> 10000,C[C@@H](C(=O)N[C@H]1CC(=O)OC1O)N1CCCC[C@H](NC(=O)OCc2ccccc2)C1=O (stereo partly drawn)
159,> 10000,O=C1C[C@H](NC(=O)[C@@H]2CS[C@@H]3CCC[C@H](NC(=O)OCc4ccccc4)C(=O)N32)C(O)O1 (stereo partly drawn)
95,,CC(C)[C@H](NC(=O)OCc1ccccc1)C(=O)N1CCCC[C@H]1C(=O)N[C@H]1CC(=O)OC1O (stereo partly drawn)
64,,CC(C)[C@H](NC(=O)OCc1ccccc1)C(=O)N[C@@H](C)C(=O)N[C@H]1CC(=O)OC1O (stereo partly drawn)
87,,CC(C)[C@H](NC(=O)OCc1ccccc1)C(=O)N1CCC[C@H]1C(=O)N[C@H]1CC(=O)OC1O (stereo partly drawn)
37000,> 100000,O=C(CN1CCC[C@H](NC(=O)OCc2ccccc2)C1=O)N[C@H]1CC(=O)OC1O (stereo partly drawn)
3700,> 100000,C[C@@H](C(=O)N[C@H]1CC(=O)OC1O)N1CC[C@H](NC(=O)OCc2ccccc2)C1=O (stereo partly drawn)
4800,,O=C1C[C@H](NC(=O)[C@@H]2CS[C@H]3CC[C@H](NC(=O)OCc4ccccc4)C(=O)N32)C(O)O1 (stereo partly drawn)
